In US10722582B2, “Targeted antimicrobial photodynamic therapy” (Purdue Research Foundation, priority 2018, dated 2020):

How the values were obtained:
MRSA383 = assay: Antibacterial activity assay with LED light; format: cell-based, Staphylococcus aureus
Description: (§1) Antibacterial activity assay general protocol: Used LED light to test conditions. Bacteria were grown in TS broth, followed by 3 mM bipyridine in TS broth until log phase. Bacteria were then diluted with PBS, to OD 0.1 (˜10^) and then to ˜10^7 cfu/mL. 100 uL of bacteria were placed in 96 well plates with the appropriate GaPpIX concentration. 2× serial dilutions were then done to obtain other GaPpIX concentrations. Each concentration was done in triplicate. Bacteria were left incubating and irradiating for different amount of times at different light powers or left in the dark. 10× Serial dilutions were done and bacteria were plated for colony counting using the drop-plate technique. Colonies were counted after 24 hours. As reported herein, a 3-log reduction equals measurable antimicrobial action; a 6-log reduction equals total eradication.
(§2) Stock solution preparation (AVM-3-36, 10 nm AgNP). Prepared a solution of (AVM-2-273) GaPpIX-apoHb 1 mg/mL in MP H2O, deaerated. Took 10 mL of 10 nm AgNPs, centrifuged at 900 G for 5 min (Beckman, 3100 RPM), took supernantant and added 200 uL of GaPpIXHb. After overnight, centrifuged 3000 RPM g for 5 minutes (Beckman). Took supernantant and centrifuged using a 100 K CentriCon tube at 4000 RPM for 5 minutes, 3×. Added 15 mM borate buffer to NPs. Based on calibration curve, the stock solution is 1.94 ug/mL AgNP, so stock: 79 μg/mL AgNP, 10.37 μg/mL GaPpIXHb, 0.446 μg/mL GaPpIX (refer to AVM-2-293A and AVM-3-3).
(§3) The following antibacterial activity measurements were assayed in the presence of AgNP.

MRSA385 = assay: Antibacterial activity assay with LED light; format: cell-based, Staphylococcus aureus
Description: as §1, §2, §3

MRSA386 = assay: Antibacterial activity assay with LED light; format: cell-based, Staphylococcus aureus
Description: as §1, §2, §3

MRSA387 = assay: Antibacterial activity assay with LED light; format: cell-based, Staphylococcus aureus
Description: as §1, §2, §3

CSHR-expressing bacteria = assay: Bacterial uptake of GaPpIX, time to saturation; format: cell-based
Description: Bacteria were cultured and assayed in iron-deficient media unless otherwise noted. A stock solution of Ga-PpIX (14.6 μM) was prepared by dispersing 5 mg in 1 mL of 10% DMSO in PBS for 10 minutes in an ultrasonic cleaning bath protected from light, followed by filtration and 10× dilution in PBS just prior to use. Bacterial suspensions (0.5 mL) were treated with freshly prepared solutions of PpIX derivatives for specified periods (5-15 min), then harvested by centrifugation at 5.2 g for 5 minutes, redispersed twice in 0.5 mL deionized water, and centrifuged a third time. A 10-μL aliquot of concentrated bacteria was deposited onto a glass slide and dried in air for 20 min, then imaged by fluorescence microscopy as described above. For details on fluorescence image processing and quantitative analysis, see Supporting Information.
Darkfield and fluorescent images were acquired in succession, with the former used to map regions of interest (ROIs) by tracing the outlines of bacteria (FIG. 8). Three images were acquired for each sample; in each case, the tracing map was overlaid onto the fluorescence image to calculate pixel intensities within each ROI, using the mean pixel intensity for quantitative analysis. […]

[1] = test system: S. aureus and clinical isolates of MRSA; assay: aPDI with CFL irradiation, summary over strains; format: cell-based, Staphylococcus aureus; conditions: 15 minutes of irradiation, compact fluorescence lightbulb (λmax 406 nm, 12.4 mW/cm^2)
Description: A 20-W compact fluorescent lightbulb (CFL; Sunlite SL20/BLB) housed in an ellipsoidal reflector dome was used for aPDI, at an emission wavelength at 406 nm and a mean power density of 12.4 mW/cm^2 (after applying a 408-nm shortpass filter). Antimicrobial assays were performed on planktonic bacteria at 10^7 cfu/mL with variable exposure times to CFL irradiation, followed by plating on agar and incubation at 37° C. In a typical experiment, bacterial suspensions were transferred into 96-well plates then treated with 100-μL aliquots of Ga-PpIX or PpIX solution, with final concentrations ranging from 320 to 0.31 μg/mL, followed immediately with CFL irradiation for 5 to 15 minutes. The irradiated bacteria were plated onto agar in serial tenfold dilutions (10^7-10^1 cfu/mL); controls included one set of wells without photosensitizer, and one set of wells with photosensitizer but without 15 min irradiation, prior to plating (dark toxicity). Bacterial counts were determined by the drop-plate method using TS-agar plates, and reported in colony-forming units per milliliter (cfu/mL).

With Ga(III)-protoporphyrin [Ga-PpIX (1)] the “concentration for 3-log reduction” value (MRSA383) was 59 nM, the “concentration for 6-log reduction” value (MRSA383) was 118 nM and the “concentration for 3-log reduction” value (MRSA385) was 89 nM. The “concentration for 6-log reduction” value (MRSA385) was 470 nM, the “concentration for 3-log reduction” value (MRSA386) was 118 nM and the “concentration for 6-log reduction” value (MRSA386) was 235 nM. The “concentration for 3-log reduction” value (MRSA387) was 59 nM, the “concentration for 6-log reduction” value (MRSA387) was 1900 nM and the “time to saturation of uptake” value (CSHR-expressing bacteria) was “under 15 minutes”. The “GaPpIX concentration for 3-log reduction by aPDI” value [1] was 0.5-4.5 μM.
